BindingDB's records for patent US20240174690 (Boehringer Ingelheim International, 2024)

Biological target: GTPase KRas [G12C,C51S,C80L,C118S] (Homo sapiens, UniProt P01116, C118S/C51S/C80L/G12C)
Test: AlphaScreen Binding Assay
Text: […]

GTPase KRas [G12C,C51S,C80L,C118S], sequence (P01116 whole entry G12C/C51S/C80L/C118S, looked up): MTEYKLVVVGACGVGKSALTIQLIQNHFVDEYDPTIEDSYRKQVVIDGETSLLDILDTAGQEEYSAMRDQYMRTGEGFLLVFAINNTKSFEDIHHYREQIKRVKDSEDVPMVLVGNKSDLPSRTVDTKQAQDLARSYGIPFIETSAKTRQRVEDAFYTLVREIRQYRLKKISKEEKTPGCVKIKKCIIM

IC50: 4 nM
SMILES: C[C@H](Oc1cc(-n2nccc2-c2ccncc2)nc(-c2noc3c2CCC[C@@]32CCCc3sc(N)c(C#N)c32)n1)[C@@H]1CCCN1C [US20240174690, Example II-131]
